Legend:
VEGF transcript = VEGF transcript knockdown in subcutaneous tumors after intratumoral injection of formulated siVEGF; format: in vivo, mice; details: VEGF siRNA 5:1 N:P, 0.3 mg/mL, 30 μl intratumoral, 48 h after second injection
Protocol: (§1) In this example tumors were implanted into the hind flanks of […] by injecting 5×10^5 squamous cell carcinoma cells. Tumors were allowed to grow until they reached a size of […]. Tumors were then injected with a commercially available siRNA targeting VEGF that was formulated with dioleoyl monoamine at a 5:1 N:P ratio or with a similarly formulated non-silencing control siRNA. The final concentration of siRNA was 0.3 mg/mL. A total of 30 μl of the formulated siRNA solution was injected into tumors and injections were repeated every 3-4 days for a total of 6 injections. The tumors from some animals were harvested 48 hours after the second formulated siRNA injection for transcript analysis.

[1] = Controlled release of complexed Cav-1 siRNA from crosslinked alginate gel; format: physicochemical
Protocol: siRNA complexed with dioleoyl monoamine is formulated as described in Example 39 containing 50 μg Cav-1 siRNA and 1.4 μg dioleoyl monoamine in a volume of 50 μL. Sodium alginate (Type A) is dissolved in water to give a 2% solution. An alginate solution (100 μL) is added to a single well of a 96-well plate followed by 50 μL of the dioleoyl monoamine/Cav-siRNA solution. After thorough mixing, 50 μL of a 0.68 M CaCl2 solution is added to the previous mixture to crosslink the gel. One hundred μL of water or 0.1 M EDTA (which serves to break down the gel by complexing the Ca^2+ ions) is then added to ensure complete submersion of the gel in aqueous solution. At the prescribed time points, the supernatants are removed (200 μL) and replaced with fresh 200 μL water or 0.1 M EDTA. After 84 hours, all collected samples are assayed for Cav-1 siRNA content using qRT-PCR. The siRNA amounts collected at each time point are summed in order to determine amount released over time. In samples that have the addition of EDTA, 100% of the loaded dioleoyl monoamine formulated siRNA is released after 84 hours.

[2] = tested on: Caveolin-1 (Cav-1) transcript; test: Caveolin-1 transcript knockdown in lung and liver after single iv injection of formulated siRNA (qRTPCR); format: in vivo, mice; details: 100 μg siRNA iv, 10:1 ratio, 48 h, normalized to β-actin, vs non-targeting siRNA control
Protocol: A total of 100 μg siRNA is injected in a final volume of 200 μL (0.5 mg/mL). […] Results (FIG. 3) indicate a significant decrease in target specific Cav-1 transcript levels in both lungs (76% knockdown) and livers (62% knockdown). For each group, n=5.

[3] = tested on: squamous cell carcinoma tumors; test: Tumor growth inhibition and survival after intratumoral formulated VEGF siRNA; format: in vivo, mice
Protocol: as §1

VEGF protein = test: In vitro transfection of simVEGF siRNA complexes, supernatant mVEGF protein knockdown; format: cell-based, murine; details: SCCVII cells, 0.5 μg complexed simVEGF siRNA, 6 h + 40 h
Protocol: (§2) The transfection activity of siRNA and dioleoyl monoamine delivery reagent conjugate complexes is determined in vitro. Transfection complexes containing simVEGF siRNA construct are prepared by methods previously described in Example 9. SCCVII cells (0.5×10^5 cells/well) are seeded into 24-well tissue culture plates in 10% FBS. Each well is incubated for 6 hours with 0.5 μg of complexed siRNA in a total volume of 250 μL of DMEM. When the incubation period is concluded, 250 μL of DMEM supplemented with 20% FBS is added to the transfected cells and incubated further for another 40 hours. At the end of the incubation period, supernatant mVEGF protein determinations are made.
as §2, with “siRNA complexes with” for “siRNA and”, “monoamine (Example 3) or methyl-dioleoyl monoamine (Example 3A)” for “monoamine”, “delivery reagents” for “delivery reagent conjugate complexes”, “previously described.” for “previously described in Example 9.”, “are made as described above.” for “are made.”

[4] = one week after last of 6 intratumoral injections

CCCCCCCC/C=C\CCCCCCCC(=O)NCCN(CCN)CCNC(=O)CCCCCCC/C=C\CCCCCCCC [dioleoyl monoamine, N,N′-dioleoyl tris(aminoethyl)amine]
decrease in VEGF transcript relative to the non-silencing control group (VEGF transcript): 32% | loaded siRNA released from alginate gel ([1]; with 0.1 M EDTA, after 84 hours): 100% | loaded siRNA released from alginate gel ([1]; without EDTA (water), by 84 hours): < 20% | Cav-1 transcript knockdown, livers [2]: 62% | Cav-1 transcript knockdown, lungs [2]: 76% | improvement in median survival relative to non-silencing control or untreated groups ([3]; VEGF siRNA intratumoral, 6 injections): 13% | decrease in tumor volume relative to non-silencing siRNA [3, 4]: 31% | decrease in tumor volume relative to untreated control animals [3, 4]: 57% | knockdown of VEGF protein (VEGF protein): ~95%

Reference: patent publication US9254334B2, “Polyamine derivatives” (CLSN Laboratories, Inc., priority 2009, dated 2016)
